Measurements from ChEMBL document CHEMBL1201862, “PubChem BioAssay data set” (2004).
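How tested: cells in 96-well plates exposed to compound for 48 hours at five concentrations. Here, GI50 denotes the concentration required for 50% inhibition of growth.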 The source made the active and inactive calls. Rule as the data show it: active = GI50 up to about 1.1 µM and inactive = higher.

Assays:
Assay in all cases: growth of human tumour cells (NCI), 48 h
786-0 = test system: 786-0
COLO 205 = test system: COLO 205
HCC 2998 = test system: HCC 2998
KM12 = test system: KM12
M14 = test system: M14
OVCAR-5 = test system: OVCAR-5
OVCAR-8 = test system: OVCAR-8
RPMI-8226 = test system: RPMI-8226
SF-268 = test system: SF-268
SK-MEL-28 = test system: SK-MEL-28
SNB-19 = test system: SNB-19
SNB-75 = test system: SNB-75
SW-620 = test system: SW-620
TK-10 = test system: TK-10
UACC-257 = test system: UACC-257
MDA-MB-435 = test system: MDA-MB-435
MDA-N = test system: MDA-N
T47D = test system: T47D
MCF7 = test system: MCF7

Measured: GI50

O=C1Cc2ccccc2CCc2ccccc21
inactive: 786-0 > 100 µM | COLO 205 > 100 µM | HCC 2998 > 100 µM | KM12 > 100 µM | M14 > 100 µM | OVCAR-5 > 100 µM | OVCAR-8 > 100 µM | RPMI-8226 82.4 µM | SF-268 > 100 µM | SK-MEL-28 > 100 µM | SNB-19 > 100 µM | SNB-75 81.8 µM | SW-620 > 100 µM | TK-10 > 100 µM | UACC-257 > 100 µM

O=[N+]([O-])c1ccc(-c2ccc(C3=Nn4c(nnc4-c4ccc(Cl)cc4)SC3)o2)cc1
inactive: 786-0 31.4 µM | COLO 205 > 100 µM | HCC 2998 > 100 µM | KM12 > 100 µM | M14 > 100 µM | OVCAR-5 > 100 µM | OVCAR-8 > 92 µM | RPMI-8226 > 100 µM | SF-268 > 100 µM | SK-MEL-28 > 100 µM | SNB-19 30.3 µM | SNB-75 25.4 µM | SW-620 > 100 µM | TK-10 23.4 µM | UACC-257 > 100 µM

CC1=C(NC(=O)/C(=N/NC(=S)NN)C2C(=O)CC(C)(C)CC2=O)C(=O)c2ccccc2C1=O
inactive: 786-0 10.9 µM | COLO 205 12.5 µM | HCC 2998 10.8 µM | KM12 7.03 µM | M14 6.47 µM | OVCAR-5 22.4 µM | OVCAR-8 4.55 µM | RPMI-8226 10.6 µM | SF-268 8.18 µM | SK-MEL-28 12.9 µM | SNB-19 13 µM | SNB-75 21.6 µM | SW-620 8.49 µM | TK-10 16.1 µM | UACC-257 3.43 µM

N#CC(/N=N/c1ccccc1C(=O)O)C(N)=O (stereo not given)
inactive: 786-0 > 100 µM | KM12 > 100 µM | M14 > 100 µM | MDA-MB-435 > 100 µM | MDA-N > 100 µM | OVCAR-5 > 100 µM | RPMI-8226 > 100 µM | SK-MEL-28 > 100 µM | SNB-19 > 100 µM | SNB-75 60.3 µM | SW-620 > 100 µM | T47D > 100 µM | TK-10 > 100 µM | UACC-257 > 100 µM

Oc1ccc(-c2c3ccccc3c(-c3ccc(O)cc3)c3ccccc23)cc1
inactive: 786-0 > 100 µM | COLO 205 > 100 µM | HCC 2998 > 100 µM | KM12 > 100 µM | M14 > 100 µM | OVCAR-5 > 100 µM | OVCAR-8 > 100 µM | RPMI-8226 75.2 µM | SF-268 > 100 µM | SK-MEL-28 > 100 µM | SNB-19 > 100 µM | SNB-75 39.8 µM | SW-620 > 100 µM | TK-10 > 100 µM | UACC-257 > 100 µM

CC(=O)CC(N)=O
inactive: 786-0 > 100 µM | COLO 205 > 100 µM | HCC 2998 > 100 µM | KM12 > 100 µM | M14 > 100 µM | OVCAR-5 > 100 µM | OVCAR-8 > 100 µM | RPMI-8226 > 100 µM | SF-268 > 100 µM | SK-MEL-28 > 100 µM | SNB-19 > 100 µM | SNB-75 > 100 µM | SW-620 > 100 µM | TK-10 > 100 µM | UACC-257 > 100 µM

CCOC(=O)CSc1nnc(C(Sc2nc(-c3ccccc3)c(-c3ccccc3)[nH]2)C(C)C)n1-c1ccccc1 (stereo not given)
inactive: 786-0 16 µM | COLO 205 17 µM | HCC 2998 19.2 µM | KM12 17.7 µM | M14 14.3 µM | MCF7 34.7 µM | MDA-N 30.4 µM | OVCAR-5 18.9 µM | OVCAR-8 19.1 µM | RPMI-8226 33.4 µM | SF-268 17.9 µM | SK-MEL-28 18.2 µM | SNB-19 21.9 µM | SNB-75 > 10 µM | SW-620 19 µM | T47D 28.3 µM | TK-10 21.5 µM | UACC-257 14 µM

C(=N\Cc1ccccc1)/c1ccccc1-c1ccccc1/C=N/Cc1ccccc1
inactive: 786-0 > 10 µM | COLO 205 > 10 µM | KM12 > 10 µM | M14 9.86 µM | MCF7 3.82 µM | MDA-MB-435 > 10 µM | MDA-N 5.33 µM | OVCAR-5 > 10 µM | OVCAR-8 > 10 µM | RPMI-8226 3.01 µM | SF-268 > 10 µM | SK-MEL-28 > 7.57 µM | SNB-19 > 10 µM | SNB-75 4.59 µM | SW-620 > 10 µM | T47D 4.99 µM | TK-10 > 10 µM | UACC-257 2.7 µM

CN(CCO)c1nc(N)cc(=O)[nH]1
inactive: 786-0 > 100 µM | COLO 205 > 100 µM | HCC 2998 > 100 µM | KM12 > 100 µM | M14 > 100 µM | OVCAR-5 > 100 µM | OVCAR-8 > 100 µM | RPMI-8226 > 100 µM | SF-268 > 100 µM | SK-MEL-28 > 100 µM | SNB-19 > 100 µM | SNB-75 38.7 µM | SW-620 > 100 µM | TK-10 > 100 µM | UACC-257 > 100 µM
